Tested on: not listed separately
Assay: Plasma clearance in dog
Format: ADME, organism-based, Canis lupus familiaris
Conditions: not given

Compound | clearance
CC(C)n1ncnc1-c1cc2c(s1)-c1ccc(C(N)=O)cc1OCC2 | 100 mL/min/kg

Tested on: not listed separately
Assay: Oral bioavailability in nude mouse at 25 mg/kg
Format: ADME, organism-based
Conditions: in vivo

Compound | bioavailability
CC(C)n1ncnc1-c1nc2c(s1)CCOc1cc(-c3cnn(CCO)c3)ccc1-2 | 110%

Tested on: not listed separately
Assay: Oral bioavailability in Sprague-Dawley rat at 5 mg/kg
Format: ADME, organism-based
Conditions: in vivo

Compound | bioavailability
CC(C)n1ncnc1-c1nc2c(s1)CCOc1cc(-c3cnn(CCO)c3)ccc1-2 | 83%

Tested on: not listed separately
Assay: Oral bioavailability in Beagle dog at 2 mg/kg
Format: ADME, organism-based, Canis lupus familiaris
Conditions: in vivo

Compound | bioavailability
CC(C)n1ncnc1-c1nc2c(s1)CCOc1cc(-c3cnn(CCO)c3)ccc1-2 | 22%

Tested on: not listed separately
Assay: in vivo
Conditions: Sprague-Dawley, rat, plasma, iv, 1 mg/kg

Compound | clearance
CC(C)n1ncnc1-c1nc2c(s1)CCOc1cc(-c3cnn(CS(C)(=O)=O)c3)ccc1-2 | 6.1 mL/min/kg
CC(C)n1nc(N)nc1-c1nc2c(s1)CCOc1cc(-c3cnn(CC(C)(C)O)c3)ccc1-2 | 55 mL/min/kg
Cc1nc(-c2nc3c(s2)CCOc2cc(-c4cnn(CCO)c4)ccc2-3)n(C(C)C)n1 | 1.9 mL/min/kg
CC(C)n1ncnc1-c1nc2c(s1)CCOc1cc(C3CN(CC(C)(C)O)C3)ccc1-2 | 163 mL/min/kg
CC(C)n1ncnc1-c1nc2c(s1)CCOc1cc(C3CN(CCO)C3)ccc1-2 | 128 mL/min/kg
CC(C)n1ncnc1-c1nc2c(s1)CCOc1cc(C3CN(C[C@H](O)CO)C3)ccc1-2 | 57 mL/min/kg
CC(C)n1ncnc1-c1nc2c(s1)CCOc1cc(-c3cnn(CCO)c3)ccc1-2 | 5.4 mL/min/kg
CC(C)n1ncnc1-c1nc2c(s1)CCOc1cc(C3CN(C(C)(C)C(N)=O)C3)ccc1-2 | 55 mL/min/kg
CC(C)n1ncnc1-c1nc2c(s1)CCOc1cc(-c3cnn(C(C)(C)C(N)=O)c3)ccc1-2 | 10 mL/min/kg
CC(C)n1c(-c2nc3c(s2)CCOc2cc(-c4cnn(CC(C)(C)O)c4)ccc2-3)n[nH]c1=O | 84 mL/min/kg
CC(C)n1ncnc1-c1nc2c(s1)CCOc1cc(-c3cnn(CC(C)(C)O)c3)ccc1-2 | 6.8 mL/min/kg
CC(C)n1ncnc1-c1nc2c(s1)CCOc1cc(C3CN(C(=O)C(C)(C)N)C3)ccc1-2 | 60 mL/min/kg

Tested on: Rattus norvegicus
Assay: Unbound plasma clearance in Sprague-Dawley rat at 1 mg/kg, iv
Format: ADME, organism-based
Design: dose 1 mg/kg, route intravenous
Conditions: in vivo

Compound | CL free
CC(C)n1ncnc1-c1nc2c(s1)CCOc1cc(-c3cnn(C(C)(C)C(N)=O)c3)ccc1-2 | 625 mL/min/kg
CC(C)n1ncnc1-c1nc2c(s1)CCOc1cc(C3CN(C(=O)C(C)(C)N)C3)ccc1-2 | 1153 mL/min/kg

Tested on: not listed separately
Assay: Apparent permeability across apical to basolateral side in MDCK cells
Format: ADME, cell-based, Canis lupus familiaris
Conditions: dog

Compound | Papp A→B
CC(C)n1ncnc1-c1nc2c(s1)CCOc1cc(-c3cnn(CCO)c3)ccc1-2 | 16 ×10⁻⁶ cm/s

Tested on: not listed separately
Assay: in vivo
Conditions: nude, mouse, plasma, iv, 1 mg/kg

Compound | clearance
CC(C)n1ncnc1-c1nc2c(s1)CCOc1cc(-c3cnn(CS(C)(=O)=O)c3)ccc1-2 | 3.2 mL/min/kg
CC(C)n1nc(N)nc1-c1nc2c(s1)CCOc1cc(-c3cnn(CC(C)(C)O)c3)ccc1-2 | 4 mL/min/kg
Cc1nc(-c2nc3c(s2)CCOc2cc(-c4cnn(CCO)c4)ccc2-3)n(C(C)C)n1 | 2.2 mL/min/kg
CC(C)n1ncnc1-c1nc2c(s1)CCOc1cc(C3CN(CC(C)(C)O)C3)ccc1-2 | 170 mL/min/kg
CC(C)n1ncnc1-c1nc2c(s1)CCOc1cc(C3CN(CCO)C3)ccc1-2 | 132 mL/min/kg
CC(C)n1ncnc1-c1nc2c(s1)CCOc1cc(C3CN(C[C@H](O)CO)C3)ccc1-2 | 165 mL/min/kg
CC(C)n1ncnc1-c1nc2c(s1)CCOc1cc(-c3cnn(CCO)c3)ccc1-2 | 9.5 mL/min/kg
CC(C)n1ncnc1-c1nc2c(s1)CCOc1cc(C3CN(C(C)(C)C(N)=O)C3)ccc1-2 | 104 mL/min/kg
CC(C)n1ncnc1-c1nc2c(s1)CCOc1cc(-c3cnn(C(C)(C)C(N)=O)c3)ccc1-2 | 13.4 mL/min/kg
CC(C)n1c(-c2nc3c(s2)CCOc2cc(-c4cnn(CC(C)(C)O)c4)ccc2-3)n[nH]c1=O | 22 mL/min/kg
CC(C)n1ncnc1-c1nc2c(s1)CCOc1cc(-c3cnn(CC(C)(C)O)c3)ccc1-2 | 3.1 mL/min/kg

Tested on: not listed separately
Assay: Plasma clearance in Beagle dog at 1 mg/kg, iv
Format: ADME, organism-based, Canis lupus familiaris
Design: dose 1 mg/kg, route intravenous
Conditions: not given

Compound | clearance
CC(C)n1ncnc1-c1nc2c(s1)CCOc1cc(-c3cnn(CCO)c3)ccc1-2 | 14 mL/min/kg
